Test results from patent publication US20100267712A1, “ISOINDOLINE COMPOUNDS FOR THE TREATMENT OF SPINAL MUSCULAR ATROPHY AND OTHER USES” (The United States of America, as represented by the …, priority 2007, published 2010).

Assays:
[1] = test system: translational stop codon read-through, human SMN2 open reading frame-luciferase; test: Translational read-through luciferase reporter assay (luciferase preceded by the open reading frame of the human SMN2 gene); format: cell-based
Description: This assay was similar in design to that described in WO 01/44516 A2. This was a cell-based luciferase reporter assay designed to detect translational read-through via insertion of a translational stop codon within the coding sequence that includes luciferase. In the presence of compounds that promote read-through of translational stop codons, active luciferase was produced and detected via chemiluminescence. Compounds of the invention typically were active in three versions of this assay: luciferase reporter containing a UGA stop codon, luciferase reporter containing a UAG stop codon, which is the first stop codon downstream of the improper splice junction between exons 6 and 8 in the human SMN2 transcript, and luciferase preceded by the open reading frame of the human SMN2 gene.

[2] = test system: SMN2-linked luciferase-reporter gene construct; test: SMN Splice Reporter Assay (SMN2-linked luciferase reporter); format: cell-based; settings: for EC50: cervical carcinoma cell lines, SMN2 splice luciferase reporter; for Fold Increase: fold-increase of luciferase over baseline reading of transformed cells without any test compound
In short: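 Cervical carcinoma cells carrying an SMN2-luciferase splicing reporter, in-frame only with exon 7 inclusion, were treated with compound. Luciferase activity reported as fold increase over untreated transformed cells, with EC50 derived.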

SMILES | EC50 [1] [nM] | maximal fold induction [1] | EC50 [2] [nM] | Fold Increase [2]
O=C1c2ccccc2CN1c1ccc2c(c1)OCCO2 [Example 116069] | 2440 | 1.97 | 95 | 1.348
COc1ccc2c(c1)C(=O)N(c1ccc3c(c1)OCCO3)C2 [Example 116239] | 421 | 2.02 | 20 | 1.228
COc1ccc2c(c1)C(=O)N(c1ccc3c(c1)OC(C)(C)O3)C2 [Example 116566] | 4180 | 1.36 | 9 | 1.308
Cn1ccc2cc(N3Cc4cc5c(cc4C3=O)OCCO5)ccc21 [Example 118275] | 2090 | 1.28 | 14 | 1.484
COc1ccc2c(c1)C(=O)N(c1ccc3ccoc3c1)C2 [Example 118740] | 220 | 1.67 | 22 | 1.388
COc1ccc2c(c1)C(=O)N(c1ccc3c(ccn3C(C)C)c1)C2 [Example 119518] | 2800 | 1.2 | 71 | 1.617
Cn1ccc2cc(N3Cc4ccc(Br)cc4C3=O)ccc21 [Example 119521] | 2960 | 1.56 | 96 | 1.491
COCn1ccc2cc(N3Cc4ccc(OC)cc4C3=O)ccc21 [Example 119658] | 6030 | 1.19 | 59 | 1.42
COCCn1ccc2cc(N3Cc4ccc(OC)cc4C3=O)ccc21 [Example 119659] | 752 | 1.38 | 68 | 1.405
COc1ccc2c(c1)C(=O)N(c1ccc3c(c1)N(C)CCO3)C2 [Example 119867] | 676 | 2.04 | 117 | 1.495
COc1cc2c(cc1OC)C(=O)N(c1ccc3ccn(C)c3c1)C2 [Example 120594] | 19400 | 2.08 | 2060 | 1.561
Cn1ccc2cc(N3Cc4ccc(Cl)cc4C3=O)ccc21 [Example 120599] | 1890 | 1.88 | 61 | 1.407
CCCCOc1ccc2c(c1)C(=O)N(c1ccc3c(c1)cc(C)n3C)C2 [Example 124035] |  |  |  | 1.118
COc1cc2c(cc1OC)C(=O)N(c1ccc3c(c1)cc(C)n3C)C2 [Example 124036] |  |  | 1640 | 1.34
COc1ccc2c(c1)C(=O)N(c1ccc3c(N(C)C)ccnc3c1)C2 [Example 124037] |  |  | 5970 | 1.377
COc1ccc2c(c1)C(=O)N(c1ccc3c(C)ccnc3c1)C2 [Example 124038] |  |  | 26 | 1.509
Cn1ccc2ccc(N3Cc4ccc(O)cc4C3=O)cc21 [Example 124039] |  |  | 520 | 1.893
Cc1cc2cc(N3Cc4ccc(S(C)(=O)=O)cc4C3=O)ccc2n1C [Example 124166] |  |  |  | 1.227
CCOc1ccc2c(c1)C(=O)N(c1ccc3ccn(C)c3c1)C2 [Example 124167] |  |  | 69 | 1.759
Cn1ccc2ccc(N3Cc4ccc(S(C)(=O)=O)cc4C3=O)cc21 [Example 124168] |  |  |  | 1.462
CCc1ccc2c(c1)C(=O)N(c1ccc3ccn(C)c3c1)C2 [Example 124169] |  |  | 152 | 1.673
COc1ccc2c(c1)C(=O)N(c1ccc3ccc(O)nc3c1)C2 [Example 124170] |  |  |  | 1.102

SMILES | EC50 [1] [nM] | maximal fold induction [1] | EC50 [2] [nM] | Fold Increase [2]
CCCOc1ccc2c(c1)C(=O)N(c1ccc3ccn(C)c3c1)C2 [Example 124325] |  |  | 145 | 1.69
CCc1cc2cc(N3Cc4ccc(OC)cc4C3=O)ccc2n1C [Example 124327] |  |  | 560 | 1.361
COCc1cc2cc(N3Cc4ccc(OC)cc4C3=O)ccc2n1C [Example 124328] |  |  |  | 1.305
CCCc1ccc2c(c1)C(=O)N(c1ccc3ccn(C)c3c1)C2 [Example 124428] |  |  | 151 | 1.692
COc1ccc2c(c1)C(=O)N(c1ccc3ccc(C)nc3c1)C2 [Example 124430] |  |  | 46 | 1.411
Cn1ccc2ccc(N3Cc4ccc(N5CCOCC5)cc4C3=O)cc21 [Example 124539] |  |  |  | 1.652
CN1CCN(c2ccc3c(c2)C(=O)N(c2ccc4ccn(C)c4c2)C3)CC1 [Example 124649] |  |  |  | 1.119
Cn1ccc2ccc(N3Cc4ccc(N5CCCCC5)cc4C3=O)cc21 [Example 124650] |  |  | 96 | 1.684
COc1ccc2c(c1)C(=O)N(c1ccc3c(c1)cc1n3CCC1)C2 [Example 124651] |  |  | 116 | 1.452
O=C1c2cc(N3CCCC3)ccc2CN1c1ccc2ncccc2c1 [Example 124770] |  |  | 24 | 1.948
COc1ccc2c(c1)C(=O)N(c1ccc3c(c1)cc(CN(C)C)n3C)C2 [Example 124772] |  |  |  | 1.148
COc1ccc2c(c1)C(=O)N(c1ccc3c(c1)cc(C(C)C)n3C)C2 [Example 124773] |  |  |  | 1.255
COc1ccc2c(c1)C(=O)N(c1ccc3cc4n(c3c1)CCC4)C2 [Example 124774] |  |  | 327 | 1.369
Cn1ccc2ccc(N3Cc4ccc(NC(=O)c5ccccc5)cc4C3=O)cc21 [Example 124775] |  |  |  | 1.216
CC(C)C(=O)Nc1ccc2c(c1)C(=O)N(c1ccc3ccn(C)c3c1)C2 [Example 124776] |  |  |  | 2.069
Cn1ccc2ccc(N3Cc4ccc(OC5CCCC5)cc4C3=O)cc21 [Example 124860] |  |  | 135 | 1.582
Cc1cc2ccc(N3Cc4ccc(Cl)cc4C3=O)cc2n1C [Example 124861] |  |  |  | 1.268
Cn1ccc2cc(N3Cc4ccc(NC(=O)c5ccccc5)cc4C3=O)ccc21 [Example 124862] |  |  |  | 1.07
CC(C)C(=O)Nc1ccc2c(c1)C(=O)N(c1ccc3c(ccn3C)c1)C2 [Example 124863] |  |  |  | 1.251
CC(C)C(=O)Nc1ccc2c(c1)C(=O)N(c1ccc3c(ccn3C)c1)C2 [Example 124864] |  |  | 277 | 1.519
Cn1ccc2ccc(N3Cc4ccc(NS(C)(=O)=O)cc4C3=O)cc21 [Example 124977] |  |  |  | 1.061
Cc1cc2ccc(N3Cc4ccc(-c5ccccc5)cc4C3=O)cc2n1C [Example 124978] |  |  |  | 1.115

SMILES | EC50 [1] [nM] | maximal fold induction [1] | EC50 [2] [nM] | Fold Increase [2]
COc1ccc2c(c1)C(=O)N(c1ccc3c(c1)cc(-c1ccccc1)n3C)C2 [Example 124979] |  |  |  | 1.378
Cn1ccc2cc(N3Cc4ccc(NS(C)(=O)=O)cc4C3=O)ccc21 [Example 124980] |  |  |  | 1.534
Cn1ccc2ccc(N3Cc4ccc(NC=O)cc4C3=O)cc21 [Example 124981] |  |  |  | 1.638
CCCOc1ccc2c(c1)C(=O)N(c1ccc3cc(C)n(C)c3c1)C2 [Example 124982] |  |  |  | 1.221
CCOc1ccc2c(c1)C(=O)N(c1ccc3cc(C)n(C)c3c1)C2 [Example 124983] |  |  |  | 1.305
Cc1cc2ccc(N3Cc4ccc(O)cc4C3=O)cc2n1C [Example 124984] |  |  |  | 1.401
Cc1cc2ccc(N3Cc4ccc(-c5cccnc5)cc4C3=O)cc2n1C [Example 125093] |  |  |  | 1.082
CC(C)Oc1ccc2c(c1)C(=O)N(c1ccc3cc[nH]c3c1)C2 [Example 125095] |  |  | 3 | 1.134
Cn1ccc2cc(N3Cc4ccc(NC=O)cc4C3=O)ccc21 [Example 125096] |  |  | 44 | 1.371
COc1ccc2c(c1)C(=O)N(c1ccc3cc(C)[nH]c3c1)C2 [Example 125097] |  |  | 50 | 1.347
Cc1cc2ccc(N3Cc4ccc(OC(C)C)cc4C3=O)cc2n1C [Example 125098] |  |  | 134 | 1.251
CC(=O)Nc1ccc2c(c1)C(=O)N(c1ccc3cc[nH]c3c1)C2 [Example 125269] |  |  | 15 | 1.416
CC(C)n1ccc2cc(N3Cc4ccc(N(C)C)cc4C3=O)ccc21 [Example 125271] |  |  | 22 | 1.285
CC(C)n1ccc2cc(N3Cc4ccc(N5CCCC5)cc4C3=O)ccc21 [Example 125384] |  |  |  | 1.091
Cc1cc2cc(N3Cc4ccc(Br)cc4C3=O)ccc2n1C(C)C [Example 125385] |  |  |  | 1.454
CCCc1ccc2c(c1)C(=O)N(c1ccc3c(ccn3C(C)C)c1)C2 [Example 125386] |  |  |  | 1.037
CN(C)c1ccc2c(c1)C(=O)N(c1ccc3cc[nH]c3c1)C2 [Example 125600] |  |  | 4 | 1.405
CCCc1ccc2c(c1)C(=O)N(c1ccc3c(c1)cc(C)n3C(C)C)C2 [Example 125601] |  |  |  | 1.027
Cc1cc2cc(N3Cc4ccc(N(C)C)cc4C3=O)ccc2n1C(C)C [Example 125602] |  |  |  | 1.139
Cc1cc2cc(N3Cc4ccc(N5CCCC5)cc4C3=O)ccc2n1C(C)C [Example 125603] |  |  |  | 0.995
CC(=O)Nc1ccc2c(c1)C(=O)N(c1ccc3c(c1)cc(C)n3C(C)C)C2 [Example 125822] |  |  |  | 1.329
CC(=O)Nc1ccc2c(c1)C(=O)N(c1ccc3c(ccn3C(C)C)c1)C2 [Example 126111] |  |  | 63 | 1.34
